Consider one compound from ChEMBL document CHEMBL4507273 (2021).

For test [1], the target named is Tyrosine-protein kinase SYK (Homo sapiens) (UniProt P43405). Put plainly: Syk(h) Eurofins Kinase panel. Particulars: Compound concentration 1.0 uM.
Test [2] deals with BDNF/NT-3 growth factors receptor (Homo sapiens) (UniProt Q16620). Put plainly: TrkB(h) Eurofins Kinase panel. Particulars: Compound concentration 1.0 uM.
In test [3] the target is T1, 5-hydroxytryptamine receptor 1A (Homo sapiens) (UniProt P08908).
T1 sequence (whole entry): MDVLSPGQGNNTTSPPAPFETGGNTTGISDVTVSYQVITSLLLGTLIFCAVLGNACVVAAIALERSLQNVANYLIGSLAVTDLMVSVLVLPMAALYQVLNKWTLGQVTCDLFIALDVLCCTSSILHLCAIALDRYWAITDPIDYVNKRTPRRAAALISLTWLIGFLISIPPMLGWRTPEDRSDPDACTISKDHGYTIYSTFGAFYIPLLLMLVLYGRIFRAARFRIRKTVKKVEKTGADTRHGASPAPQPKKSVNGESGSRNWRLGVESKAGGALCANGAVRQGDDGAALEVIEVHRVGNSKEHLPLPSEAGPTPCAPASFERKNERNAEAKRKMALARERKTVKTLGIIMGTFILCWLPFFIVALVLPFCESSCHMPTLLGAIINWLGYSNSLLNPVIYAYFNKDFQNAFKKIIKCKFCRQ
As to conditions: Compound concentration 10.0 uM.

By inhibition is commonly meant the change of the read-out against control, counted positive when it falls.

Chain of BDNF/NT-3 growth factors receptor (Homo sapiens) (Q16620 32-822 limits assumed): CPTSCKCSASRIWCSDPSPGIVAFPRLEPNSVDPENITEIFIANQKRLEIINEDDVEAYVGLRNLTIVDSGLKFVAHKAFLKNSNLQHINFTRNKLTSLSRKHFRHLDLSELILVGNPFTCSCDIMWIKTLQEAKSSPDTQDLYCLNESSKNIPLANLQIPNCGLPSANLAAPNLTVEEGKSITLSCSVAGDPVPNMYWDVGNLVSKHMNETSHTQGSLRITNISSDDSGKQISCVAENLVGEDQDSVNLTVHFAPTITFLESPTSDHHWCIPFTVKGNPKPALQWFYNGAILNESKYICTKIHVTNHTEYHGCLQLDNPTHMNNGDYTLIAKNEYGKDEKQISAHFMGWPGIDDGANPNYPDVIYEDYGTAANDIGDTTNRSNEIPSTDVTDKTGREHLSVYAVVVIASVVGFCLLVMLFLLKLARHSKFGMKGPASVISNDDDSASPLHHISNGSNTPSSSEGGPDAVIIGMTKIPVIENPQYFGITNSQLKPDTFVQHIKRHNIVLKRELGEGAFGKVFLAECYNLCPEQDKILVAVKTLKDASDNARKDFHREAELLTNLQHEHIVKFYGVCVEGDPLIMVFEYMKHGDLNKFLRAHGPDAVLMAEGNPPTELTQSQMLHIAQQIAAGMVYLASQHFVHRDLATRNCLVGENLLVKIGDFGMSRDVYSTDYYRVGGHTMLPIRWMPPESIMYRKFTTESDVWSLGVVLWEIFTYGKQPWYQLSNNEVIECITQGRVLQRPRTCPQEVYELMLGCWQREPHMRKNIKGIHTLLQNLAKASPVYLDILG

With `CNCc1ccccc1-c1csc([C@@H](C)Nc2nc(C)nc3cc(OC)c(OC)cc23)c1` [BAY-293], the % residual kinase activity in test [1] and in test [2] was 79% throughout. For the same compound, the inhibition in test [3] was 81%.
